Assay results from the supplement of paper PMC13380429.

How the values were obtained:
Settings in all cases: 72 h
Caco-2 [1] = assay: drug sensitivity score (DSS) for viability; higher = more toxic; extreme values may be limits of the assay
Vero E6 [2] = assay: as above
U2OS [3] = assay: as above
HepG2 [4] = assay: as above
Calu-3 [5] = assay: as above
Caco-2 [6] = assay: relative viability EC50 (midpoint between 100% and the lowest measured viability); higher = less toxic
Vero E6 [7] = assay: as above
U2OS [8] = assay: as above
HepG2 [9] = assay: as above
Calu-3 [10] = assay: as above
Caco-2 [11] = assay: cell viability relative to DMSO; higher = less toxic
Vero E6 [12] = assay: as above
U2OS [13] = assay: as above
HepG2 [14] = assay: as above
Calu-3 [15] = assay: as above

SMILES	drug sensitivity score (Caco-2 [1])	drug sensitivity score (Vero E6 [2])	drug sensitivity score (U2OS [3])	drug sensitivity score (HepG2 [4])	drug sensitivity score (Calu-3 [5])	relative viability EC50 (Caco-2 [6])	relative viability EC50 (Vero E6 [7])	relative viability EC50 (U2OS [8])	relative viability EC50 (HepG2 [9])	relative viability EC50 (Calu-3 [10])	cell viability (Caco-2 [11]; 1 nM)	cell viability (Caco-2 [11]; 10 nM)	cell viability (Caco-2 [11]; 100 nM)	cell viability (Caco-2 [11]; 1000 nM)	cell viability (Caco-2 [11]; 10000 nM)	cell viability (Vero E6 [12]; 1 nM)	cell viability (Vero E6 [12]; 10 nM)	cell viability (Vero E6 [12]; 100 nM)	cell viability (Vero E6 [12]; 1000 nM)	cell viability (Vero E6 [12]; 10000 nM)	cell viability (U2OS [13]; 1 nM)	cell viability (U2OS [13]; 10 nM)	cell viability (U2OS [13]; 100 nM)	cell viability (U2OS [13]; 1000 nM)	cell viability (U2OS [13]; 10000 nM)	cell viability (HepG2 [14]; 1 nM)	cell viability (HepG2 [14]; 10 nM)	cell viability (HepG2 [14]; 100 nM)	cell viability (HepG2 [14]; 1000 nM)	cell viability (HepG2 [14]; 10000 nM)	cell viability (Calu-3 [15]; 1 nM)	cell viability (Calu-3 [15]; 10 nM)	cell viability (Calu-3 [15]; 100 nM)	cell viability (Calu-3 [15]; 1000 nM)	cell viability (Calu-3 [15]; 10000 nM)
CC(C)c1c2cc(-c3ccnc(N[C@H]4CC[C@H](NC5CCOCC5)CC4)n3)ccc2nn1C	9.6	7.6	12	19.1	7.7	0.589 µM	2 µM	0.851 µM	0.18 µM	0.719 µM	94.6%	96.6%	94.8%	53.6%	31.3%	93.8%	96.7%	88%	86%	4.7%	99%	95%	99.8%	42.8%	4.6%	98.9%	101%	83.2%	10.1%	9.8%	105%	107%	108%	60.3%	43.3%
CC1CCN(CC[C@H]2CCCN2S(=O)(=O)c2cccc(O)c2)CC1	0	0	0	0	0	> 10 µM	> 10 µM	> 10 µM	> 10 µM	> 10 µM	90.4%	86.5%	96.1%	91.5%	102%	100%	93.5%	96.8%	93.8%	105%	94.3%	101%	93.4%	104%	101%	91.9%	98.1%	103%	96.7%	101%	90.1%	94.8%	92.3%	100%	105%
CCOC(=O)Nc1ccc(NCc2c(C)cc(C)cc2C)cc1N	0	0	0	0	0	> 10 µM	> 10 µM	> 10 µM	> 10 µM	> 10 µM	101%	92.6%	101%	97.4%	99%	99.4%	96.7%	90.3%	93.3%	99.7%	95.9%	103%	98.9%	103%	93.1%	99.5%	95.6%	96.5%	92.8%	100%	110%	110%	97.3%	104%	96.8%
CCS(=O)(=O)N1CCN(c2ccc(Nc3ncc(C(N)=O)c(NC4CC4)n3)cc2)CC1	0	0.3	5.7	4	0	> 10 µM	> 10 µM	2.04 µM	> 10 µM	> 10 µM	99.6%	95.4%	91.9%	86.8%	99.1%	97.4%	94.8%	99.5%	85.6%	89.6%	95.9%	103%	96.4%	89.8%	27.4%	97.6%	94.3%	97.3%	76.3%	79.1%	92.1%	111%	110%	116%	128%
CCc1c(C(=O)NCCc2ccc(N3CCCCC3)cc2)[nH]c2ccc(Cl)cc12	0	0	0	0	0	> 10 µM	> 10 µM	> 10 µM	> 10 µM	> 10 µM	98.7%	94%	95.2%	90.6%	91%	97.6%	96.4%	105%	100%	96%	98%	93.9%	98.8%	95.2%	98.6%	97.4%	107%	92.3%	105%	99.4%	95.8%	97.5%	93.4%	100%	101%
CN(C)C(=O)n1nnnc1Cc1ccc(-c2ccccc2)cc1	2.8	3.7	4.5	3	2.3	3.62 µM	3.32 µM	3.44 µM	3.19 µM	3.91 µM	106%	106%	100%	106%	40.1%	107%	106%	103%	102%	29.1%	102%	105%	102%	104%	13.6%	125%	108%	110%	100%	43.3%	102%	98%	95.2%	111%	44.9%
CNC(=O)Nc1ccc(-c2nc(N3CC4CCC(C3)O4)c3cnn(C4CCC5(CC4)OCCO5)c3n2)cc1	19.5	14.1		20.8	25.1	0.0381 µM	0.109 µM		0.0648 µM	0.0122 µM	111%	85.1%	50.6%	32.3%	33.1%	94.1%	93%	70.1%	43.8%	36.4%						98.6%	97.6%	47.1%	31.2%	20.8%	94.2%	67.2%	36.7%	28%	30.7%
COC(=O)c1cnn(-c2ccc(F)cc2F)c1/C=N/NC(=S)NC(C)(C)C	0	0	0	0	0.3	> 10 µM	> 10 µM	> 10 µM	> 10 µM	> 10 µM	102%	90.6%	102%	105%	93.9%	106%	101%	95.9%	96.1%	98.8%	98.6%	98.3%	104%	98%	103%	112%	107%	98.4%	94.3%	105%	101%	101%	97.4%	89.1%	89.6%
COc1cc(N)c(Cl)cc1C(=O)OCCN1CCCCC1	0	0	0	0	0	> 10 µM	> 10 µM	> 10 µM	> 10 µM	> 10 µM	88.3%	97.6%	86%	100%	110%	96.3%	97.3%	98.7%	99.3%	99.5%	93.9%	99%	95.5%	100%	108%	112%	96.9%	106%	94.9%	103%	93.8%	108%	102%	103%	102%
COc1ccc(CN2C(=O)C(=O)c3cc(OC(F)(F)F)ccc32)cc1	5.4	6.2	14.6	2.9	5.7	1.66 µM	1.75 µM	0.374 µM	3.43 µM	1.43 µM	90.2%	100%	89.8%	85.5%	38.8%	107%	107%	103%	86%	28.8%	99%	99.7%	92.8%	25.8%	13.4%	97.7%	108%	109%	103%	41.8%	98.3%	96.7%	110%	83%	41.7%
Cc1cccc(Oc2nc3c(C)cccn3c(=O)c2/C=C(\C#N)c2nc3ccccc3s2)c1	0	0	0	0	0	> 10 µM	> 10 µM	> 10 µM	> 10 µM	> 10 µM	93.1%	98.3%	98.3%	94%	98.6%	103%	95.5%	99.4%	91.4%	106%	95.2%	99.1%	96%	102%	106%	100%	90.2%	101%	94.6%	100%	97%	94.1%	98.6%	102%	112%
Cc1ccccc1N1CCN(S(=O)(=O)C[C@]23CC[C@H](C[C@@H]2NC(=O)[C@@H](N)CCS(C)(=O)=O)C3(C)C)CC1	0	0	0	0	0	> 10 µM	> 10 µM	> 10 µM	> 10 µM	> 10 µM	97.5%	93.3%	90%	108%	96.5%	101%	93.8%	98%	87.6%	110%	95.3%	96.4%	95.8%	101%	103%	109%	94.7%	107%	111%	108%	98.2%	103%	94.3%	105%	99.5%
FC(F)(F)c1ccc(N2CCNCC2)nc1Cl	0	0	0	0	0	> 10 µM	> 10 µM	> 10 µM	> 10 µM	> 10 µM	101%	98.5%	107%	104%	96.4%	101%	98%	95.9%	95.6%	95.2%	97.4%	99.9%	95.2%	100%	92.7%	108%	96.2%	92%	106%	104%	96.1%	105%	93.7%	106%	107%
O=C(Nc1ccc(S(=O)(=O)Nc2ccccc2Cl)c(Cl)c1)c1ccccn1	0	0	0	0	1.8	> 10 µM	> 10 µM	> 10 µM	> 10 µM	> 10 µM	95.7%	88.6%	104%	101%	89.8%	91.6%	96.7%	93.6%	101%	105%	94.8%	93.7%	103%	97.8%	98.6%	99.3%	99.8%	91.4%	101%	103%	108%	91.9%	89.8%	87.3%	98.2%
